Tests used:
[1] = molecular target: NA from influenza PR8 virus (Influenza A virus, UniProt P03468); test: biochemical
[2] = system: influenza A and B viruses; assay type: cell-based

Sequence of NA from influenza PR8 virus (P03468 whole entry, looked up): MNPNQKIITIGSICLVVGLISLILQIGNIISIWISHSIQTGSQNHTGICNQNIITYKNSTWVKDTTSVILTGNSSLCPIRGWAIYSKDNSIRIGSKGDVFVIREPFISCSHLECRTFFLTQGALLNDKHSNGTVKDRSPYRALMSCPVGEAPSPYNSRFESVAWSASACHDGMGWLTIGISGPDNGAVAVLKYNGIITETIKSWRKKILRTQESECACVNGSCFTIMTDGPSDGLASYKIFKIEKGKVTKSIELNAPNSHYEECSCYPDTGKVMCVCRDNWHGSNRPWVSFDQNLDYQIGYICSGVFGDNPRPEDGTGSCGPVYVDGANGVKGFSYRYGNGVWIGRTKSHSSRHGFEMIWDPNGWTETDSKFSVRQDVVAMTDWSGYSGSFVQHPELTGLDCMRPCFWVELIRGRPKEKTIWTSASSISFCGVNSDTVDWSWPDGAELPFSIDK

O=C(O)C1=CC(=C(c2ccc(O)c(C(=O)O)c2)c2ccc(O)c(C(=O)O)c2)C=CC1=O [ATA, Aurintricarboxylic acid]
IC50 [1]: 17 µM
replication after pre-incubation of virus with ATA [2]: inhibited replication of both WSN and H274Y viruses in a dose-responsive fashion

Source: article PMC2792043 (PLoS ONE, 2009)
